Assay results published in ChEMBL document CHEMBL1145851, “Novel substituted pyridinyl imidazoles as potent anticytokine agents with low activity against hepatic cytochrome P450 enzymes” (J Med Chem, 2003).
The source made the active and inactive calls. The rule behind the calls is not given here.

Key:
MAP kinase p38 [1] = target: T1, MAP kinase p38 (Homo sapiens, UniProt O15264+Q15759+Q16539+P53778); experiment: Inhibitory activity against TNF-alpha release in PBM cells; type: functional, cell-based
MAP kinase p38 [2] = target: T1, MAP kinase p38; experiment: Inhibitory activity against induction of IL-1-beta release in PBMCs; type: functional
MAP kinase p38 [3] = target: T1, MAP kinase p38; experiment: Inhibitory activity against mitogen-activated protein kinase p38 at 10 e-4 to 10 e-8 M concentration; type: protein assay
CYP1A2 = target: T2, CYP1A2 (Homo sapiens, UniProt P05177); experiment: Inhibition of Cytochrome P450 1A2 at 10 uM; type: ADME
T2 sequence (P05177 whole entry): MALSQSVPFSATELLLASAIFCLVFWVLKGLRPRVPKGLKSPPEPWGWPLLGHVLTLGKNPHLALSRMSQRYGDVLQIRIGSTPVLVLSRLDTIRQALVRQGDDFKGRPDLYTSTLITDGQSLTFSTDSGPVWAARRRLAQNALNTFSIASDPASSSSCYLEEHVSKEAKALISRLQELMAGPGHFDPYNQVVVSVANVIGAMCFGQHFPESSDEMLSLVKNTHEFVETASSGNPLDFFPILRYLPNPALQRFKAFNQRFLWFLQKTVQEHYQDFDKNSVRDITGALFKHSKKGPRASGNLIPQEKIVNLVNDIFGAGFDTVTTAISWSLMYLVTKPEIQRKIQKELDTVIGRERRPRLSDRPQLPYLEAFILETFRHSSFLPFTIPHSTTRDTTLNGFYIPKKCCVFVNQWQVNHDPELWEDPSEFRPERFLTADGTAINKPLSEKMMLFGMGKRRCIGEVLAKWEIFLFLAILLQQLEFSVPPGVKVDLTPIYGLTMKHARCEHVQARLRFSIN

CYP3A4 = CYP3A4 (Homo sapiens, UniProt P08684); experiment: Inhibition of Cytochrome P450 3A4 at 10 uM; type: ADME
Sequence of CYP3A4 (P08684 whole entry): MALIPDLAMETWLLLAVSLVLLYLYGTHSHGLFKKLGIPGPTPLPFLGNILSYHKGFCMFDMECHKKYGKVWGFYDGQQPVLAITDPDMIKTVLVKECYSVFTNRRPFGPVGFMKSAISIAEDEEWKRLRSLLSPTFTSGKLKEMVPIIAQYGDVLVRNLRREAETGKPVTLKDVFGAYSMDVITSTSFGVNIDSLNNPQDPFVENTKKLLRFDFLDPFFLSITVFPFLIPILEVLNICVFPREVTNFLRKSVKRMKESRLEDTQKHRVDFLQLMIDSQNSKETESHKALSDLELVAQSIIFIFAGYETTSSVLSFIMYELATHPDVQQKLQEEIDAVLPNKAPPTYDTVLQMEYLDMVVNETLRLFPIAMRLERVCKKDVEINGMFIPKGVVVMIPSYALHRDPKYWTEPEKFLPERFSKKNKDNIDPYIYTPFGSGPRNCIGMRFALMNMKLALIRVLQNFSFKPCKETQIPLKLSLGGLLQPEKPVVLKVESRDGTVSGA

MAP kinase p38 [4] = target: T1, MAP kinase p38; experiment: Inhibition of p38-related TNF-alpha release by whole blood cells at 10 e-4 to 10 e-8 M; type: functional
CYP2C19 = CYP2C19 (Homo sapiens, UniProt P33261); experiment: Inhibition of Cytochrome P450 2C19 at 10 uM; type: ADME
Sequence of CYP2C19 (P33261 whole entry): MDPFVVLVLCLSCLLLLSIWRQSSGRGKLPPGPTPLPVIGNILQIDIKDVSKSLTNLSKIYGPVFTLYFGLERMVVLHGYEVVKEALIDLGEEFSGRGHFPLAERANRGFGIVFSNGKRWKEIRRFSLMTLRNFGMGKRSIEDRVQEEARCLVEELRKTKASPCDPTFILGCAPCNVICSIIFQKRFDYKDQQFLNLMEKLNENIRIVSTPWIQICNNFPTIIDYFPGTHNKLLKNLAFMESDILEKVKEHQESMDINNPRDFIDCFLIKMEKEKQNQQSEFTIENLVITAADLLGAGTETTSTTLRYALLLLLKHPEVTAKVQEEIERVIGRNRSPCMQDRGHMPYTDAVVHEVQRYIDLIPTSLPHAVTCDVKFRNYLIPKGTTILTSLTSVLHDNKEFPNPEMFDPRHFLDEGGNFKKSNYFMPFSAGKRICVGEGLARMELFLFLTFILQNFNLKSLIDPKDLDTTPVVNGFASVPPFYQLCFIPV

CYP2D6 = CYP2D6 (Homo sapiens, UniProt P10635); experiment: Inhibition of Cytochrome P450 2D6 at 10 uM; type: ADME
Sequence of CYP2D6 (P10635 whole entry): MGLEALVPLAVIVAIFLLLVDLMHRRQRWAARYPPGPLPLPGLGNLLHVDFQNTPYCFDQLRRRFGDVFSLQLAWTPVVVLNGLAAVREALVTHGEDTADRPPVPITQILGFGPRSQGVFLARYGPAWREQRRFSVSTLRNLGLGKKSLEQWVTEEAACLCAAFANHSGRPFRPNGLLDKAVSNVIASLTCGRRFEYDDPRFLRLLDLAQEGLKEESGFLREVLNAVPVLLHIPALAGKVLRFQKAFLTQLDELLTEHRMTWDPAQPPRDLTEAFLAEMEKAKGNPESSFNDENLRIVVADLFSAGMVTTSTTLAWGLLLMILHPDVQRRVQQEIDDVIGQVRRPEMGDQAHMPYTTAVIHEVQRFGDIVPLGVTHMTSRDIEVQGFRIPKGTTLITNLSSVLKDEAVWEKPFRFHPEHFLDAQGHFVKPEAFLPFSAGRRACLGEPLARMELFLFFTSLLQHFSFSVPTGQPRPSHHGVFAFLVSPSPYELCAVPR

MAP kinase p38 [5] = target: T1, MAP kinase p38; experiment: Inhibition of p38-related IL1-beta release by whole blood cells at 10 e-4 to 10 e-8 M; type: functional
CYP2C9 = CYP2C9 (Homo sapiens, UniProt P11712); experiment: Inhibition of Cytochrome P450 2C9 at 10 uM; type: ADME
Sequence of CYP2C9 (P11712 whole entry): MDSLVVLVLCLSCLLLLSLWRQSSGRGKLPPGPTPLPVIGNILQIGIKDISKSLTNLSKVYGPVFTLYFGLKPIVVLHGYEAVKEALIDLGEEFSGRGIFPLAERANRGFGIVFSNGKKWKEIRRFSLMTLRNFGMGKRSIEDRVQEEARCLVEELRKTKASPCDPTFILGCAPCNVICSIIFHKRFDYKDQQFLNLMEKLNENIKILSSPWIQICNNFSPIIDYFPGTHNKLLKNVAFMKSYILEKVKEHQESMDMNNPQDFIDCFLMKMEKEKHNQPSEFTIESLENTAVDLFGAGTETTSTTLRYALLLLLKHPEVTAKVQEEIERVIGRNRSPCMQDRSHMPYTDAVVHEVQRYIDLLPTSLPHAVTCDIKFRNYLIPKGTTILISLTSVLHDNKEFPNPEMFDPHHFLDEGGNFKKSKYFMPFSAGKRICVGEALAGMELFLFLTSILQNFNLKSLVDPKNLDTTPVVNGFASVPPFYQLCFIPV

MAP kinase p38 [6] = target: T1, MAP kinase p38; experiment: Inhibition of p38-related IL1-beta release by PBMC cells at 10 e-4 to 10 e-8 M (no activity); type: functional, cell-based
MAP kinase p38 [7] = target: T1, MAP kinase p38; experiment: Inhibition of p38-related TNF-alpha release by PBMC cells at 10 e-4 to 10 e-8 M (no activity); type: functional, cell-based

Row | SMILES | IC50 (MAP kinase p38 [1]) [µM] | IC50 (MAP kinase p38 [2]) [µM] | IC50 (MAP kinase p38 [3]) [µM] | further results
1 | CCCn1c(SC)nc(-c2ccc(F)cc2)c1-c1ccnc(NC(C)=O)c1 | 0.49 | 0.12 |  | 
2 | CSc1nc(-c2ccc(F)cc2)c(-c2ccnc(NCCc3ccccc3)c2)[nH]1 | 0.35 | 0.031 | 0.24 | 
3 | CSc1nc(-c2ccc(F)cc2)c(-c2ccnc(NC(C)=O)c2)n1C | 1.1 | 0.075 | 0.5 | inhibition at 10 µM (CYP1A2): 32.4%; inhibition at 10 µM (CYP3A4): 16.5%; IC50 (MAP kinase p38 [4]): 12.5 µM; inhibition at 10 µM (CYP2C19): 20.3%; inhibition at 10 µM (CYP2D6): 13.4%; IC50 (MAP kinase p38 [5]): 10.8 µM; inhibition at 10 µM (CYP2C9): 27.6%
4 | COc1ccc(CNc2cc(-c3[nH]c(SC)nc3-c3ccc(F)cc3)ccn2)cc1 | 0.64 | 0.056 | 0.79 | 
5 | CSc1nc(-c2ccc(F)cc2)c(-c2ccnc(N(Cc3ccccc3)Cc3ccccc3)c2)n1C |  |  |  | NA (MAP kinase p38 [6]): inactive; NA (MAP kinase p38 [7]): inactive
6 | CSc1nc(-c2ccc(F)cc2)c(-c2ccnc(NC(C)=O)c2)n1C1CC(C)(C)NC(C)(C)C1 | 4.5 | 0.46 | 0.34 | inhibition at 10 µM (CYP1A2): < 0%; inhibition at 10 µM (CYP3A4): 79%; IC50 (MAP kinase p38 [4]): 5.4 µM; inhibition at 10 µM (CYP2C19): 7.6%; inhibition at 10 µM (CYP2D6): 14.6%; IC50 (MAP kinase p38 [5]): 2.15 µM; inhibition at 10 µM (CYP2C9): 2.6%
7 | CSc1nc(-c2ccc(F)cc2)c(-c2ccncc2)n1C1CC(C)(C)NC(C)(C)C1 | 16 | 0.85 | 17 | inhibition at 10 µM (CYP1A2): 9%; inhibition at 10 µM (CYP3A4): 49.6%; IC50 (MAP kinase p38 [4]): 19.1 µM; inhibition at 10 µM (CYP2C19): 15.3%; inhibition at 10 µM (CYP2D6): 19.1%; IC50 (MAP kinase p38 [5]): 18.5 µM; inhibition at 10 µM (CYP2C9): 7.9%
8 | CSc1nc(-c2ccc(F)cc2)c(-c2ccncc2)[nH]1 | 0.9 | 0.044 | 0.63 | inhibition at 10 µM (CYP1A2): 43.5%; inhibition at 10 µM (CYP3A4): 81.4%; IC50 (MAP kinase p38 [4]): 4.2 µM; inhibition at 10 µM (CYP2C19): 79.5%; inhibition at 10 µM (CYP2D6): 39.8%; IC50 (MAP kinase p38 [5]): 1.2 µM; inhibition at 10 µM (CYP2C9): 72.4%
9 | CSc1nc(-c2ccnc(NC(C)c3ccccc3)c2)c(-c2ccc(F)cc2)n1C (stereo unspecified) |  |  | 27 | 
10 | CSc1nc(-c2ccc(F)cc2)c(-c2ccnc(Nc3ccccc3)c2)[nH]1 | 0.34 | 0.03 | 0.13 | 
11 | CSc1nc(-c2ccc(F)cc2)c(-c2ccnc(NC(C)c3ccccc3)c2)n1C (stereo unspecified) | 0.11 | 0.015 | 0.22 | inhibition at 10 µM (CYP1A2): 57.1%; inhibition at 10 µM (CYP3A4): 85.8%; IC50 (MAP kinase p38 [4]): 3 µM; inhibition at 10 µM (CYP2C19): 90.9%; inhibition at 10 µM (CYP2D6): 12.4%; IC50 (MAP kinase p38 [5]): 4.1 µM; inhibition at 10 µM (CYP2C9): 83.3%
12 | Fc1ccc(-c2nc(SCc3ccccc3)[nH]c2-c2ccnc(Cl)c2)cc1 | 60 | 1.8 |  | 
13 | CSc1nc(-c2ccc(F)cc2)c(-c2ccnc(NCc3ccccc3)c2)[nH]1 | 0.63 | 0.108 | 0.65 | 
14 | CCCn1c(SC)nc(-c2ccc(F)cc2)c1-c1ccnc(N)c1 | 5.4 | 0.5 |  | 
15 | C[S+]([O-])c1ccc(CSc2nc(-c3ccc(F)cc3)c(-c3ccnc(Cl)c3)[nH]2)cc1 (stereo unspecified) | 12 | 2.1 |  | 
16 | CSc1nc(-c2ccc(F)cc2)c(-c2ccncc2)n1C | 2.2 | 0.45 | 2.2 | IC50 (MAP kinase p38 [4]): 5.1 µM; IC50 (MAP kinase p38 [5]): 1.08 µM
17 | CSc1nc(-c2ccc(F)cc2)c(-c2ccnc(NCc3ccc(Cl)cc3)c2)[nH]1 | 0.5 | 0.15 | 0.95 | 
18 | Fc1ccc(-c2[nH]c(SCc3ccccc3)nc2-c2ccnc(NCc3ccccc3)c2)cc1 | 3.2 | 0.2 | 1.42 | 
19 | CSc1nc(-c2ccc(F)cc2)c(-c2ccnc(NCc3ccc(Cl)c(Cl)c3)c2)[nH]1 | 0.72 | 0.23 | 0.7 | 
20 | C[S+]([O-])c1ccc(CSc2nc(-c3ccc(F)cc3)c(-c3ccnc(NCc4ccccc4)c3)[nH]2)cc1 (stereo unspecified) | 2 | 0.47 | 1.45 | 
21 | CC(Nc1cc(-c2[nH]c(SCc3ccccc3)nc2-c2ccc(F)cc2)ccn1)c1ccccc1 (stereo unspecified) | 2.7 | 0.045 | 0.38 | 
22 | CSc1nc(-c2ccc(F)cc2)c(-c2ccnc(N)c2)n1C | 3.2 | 0.27 | 2.3 | 

Row | SMILES | IC50 (MAP kinase p38 [1]) [µM] | IC50 (MAP kinase p38 [2]) [µM] | IC50 (MAP kinase p38 [3]) [µM] | further results
23 | CSc1nc(-c2ccc(F)cc2)c(-c2ccnc(O)c2)[nH]1 | 3.1 | 0.5 |  | 
24 | CSc1nc(-c2ccc(F)cc2)c(-c2ccnc(NCc3ccc(C)cc3)c2)[nH]1 | 0.67 | 0.085 | 0.83 | 
25 | CSc1nc(-c2ccc(F)cc2)c(-c2ccnc(OC(C)C)c2)[nH]1 | 0.4 | 0.047 | 0.56 | inhibition at 10 µM (CYP1A2): 83.2%; inhibition at 10 µM (CYP3A4): 49.6%; IC50 (MAP kinase p38 [4]): 7.2 µM; inhibition at 10 µM (CYP2C19): 62.6%; inhibition at 10 µM (CYP2D6): < 0%; IC50 (MAP kinase p38 [5]): 2.2 µM; inhibition at 10 µM (CYP2C9): 67.5%
26 | COc1ccc(C(=O)Nc2cc(-c3c(-c4ccc(F)cc4)nc(SC)n3C)ccn2)cc1 | 0.64 | 0.44 |  | 
27 | CSc1nc(-c2ccc(F)cc2)c(-c2ccnc(F)c2)[nH]1 | 2.8 | 0.3 | 3.8 | 
28 | CCNc1cc(-c2c(-c3ccc(F)cc3)nc(SC)n2C)ccn1 | 0.6 | 0.071 | 0.7 | IC50 (MAP kinase p38 [4]): 5 µM; IC50 (MAP kinase p38 [5]): 2 µM
29 | CSc1nc(-c2ccc(F)cc2)c(-c2ccnc(N(C)Cc3ccccc3)c2)[nH]1 | 4.6 | 2.7 | 8.7 | 
30 | COc1ccc(CNc2cc(-c3[nH]c(SCc4ccccc4)nc3-c3ccc(F)cc3)ccn2)cc1 | 21 | 0.18 |  | 
31 | CC(Nc1cc(-c2[nH]c(SCc3ccc([S+](C)[O-])cc3)nc2-c2ccc(F)cc2)ccn1)c1ccccc1 (stereo unspecified) | 0.91 | 0.04 | 0.27 | 
32 | CSc1nc(-c2ccc(F)cc2)c(-c2ccnc(NCc3ccccc3)c2)n1C | 0.58 | 0.082 | 0.93 | 
33 | C[S+]([O-])c1ccc(-c2nc(-c3ccncc3)c(-c3ccc(F)cc3)[nH]2)cc1 (stereo unspecified) [SB-203580] |  |  |  | inhibition at 10 µM (CYP1A2): 61%; inhibition at 10 µM (CYP3A4): 61%; inhibition at 10 µM (CYP2C19): 85%; inhibition at 10 µM (CYP2D6): 67%; inhibition at 10 µM (CYP2C9): 75%
34 | CCNc1cc(-c2c(-c3ccc(F)cc3)nc(SC)n2C2CC(C)(C)NC(C)(C)C2)ccn1 | 2.9 | 0.62 | 0.22 | IC50 (MAP kinase p38 [4]): 11 µM; IC50 (MAP kinase p38 [5]): 2.7 µM
35 | C[S+]([O-])c1ccc(CSc2nc(-c3ccc(F)cc3)c(-c3ccnc(F)c3)[nH]2)cc1 (stereo unspecified) | 6.9 | 2.45 | 9.3 | 
36 | CCCn1c(SC)nc(-c2ccc(F)cc2)c1-c1ccnc(NCC)c1 | 0.43 | 0.15 |  | 
37 | Fc1ccc(-c2nc(SCc3ccccc3)[nH]c2-c2ccnc(F)c2)cc1 | 40.5 | 2.9 | 4.2 | 
38 | COc1cc(-c2[nH]c(SC)nc2-c2ccc(F)cc2)ccn1 | 1.9 | 0.15 |  | 
39 | CSc1nc(-c2ccnc(O)c2)c(-c2ccc(F)cc2)n1C | 31.3 | 7.2 |  | 
40 | C[S+]([O-])c1ccc(CSc2nc(-c3ccc(F)cc3)c(-c3ccncc3)[nH]2)cc1 (stereo unspecified) | 1.1 | 0.38 |  | inhibition at 10 µM (CYP1A2): 8.4%; inhibition at 10 µM (CYP3A4): 87.1%; inhibition at 10 µM (CYP2C19): 73.6%; inhibition at 10 µM (CYP2D6): 71.8%; inhibition at 10 µM (CYP2C9): 72.7%
41 | CCCn1c(SC)nc(-c2ccc(F)cc2)c1-c1ccncc1 | 1.3 | 0.36 | 2.2 | 
42 | CSc1nc(-c2ccc(F)cc2)c(-c2ccnc(NC(C)c3ccccc3)c2)[nH]1 (stereo unspecified) |  |  |  | inhibition at 10 µM (CYP1A2): 66.7%; inhibition at 10 µM (CYP3A4): 79.2%; inhibition at 10 µM (CYP2C19): 83.5%; inhibition at 10 µM (CYP2D6): 31.1%; inhibition at 10 µM (CYP2C9): 79%
43 | CSc1nc(-c2ccc(F)cc2)c(-c2ccnc(Cl)c2)[nH]1 | 2.2 | 0.35 |  | inhibition at 10 µM (CYP1A2): 92.6%; inhibition at 10 µM (CYP3A4): 48.8%; inhibition at 10 µM (CYP2C19): 41.4%; inhibition at 10 µM (CYP2D6): 18.6%; inhibition at 10 µM (CYP2C9): 65%
